Results published in article PMC5840262, “Design, Synthesis and Evaluation of Branched RRWQWR-Based Peptides as Antibacterial Agents Against Clinically Relevant Gram-Positive and Gram-Negative Pathogens” (Frontiers in Microbiology, 2018).
Ends that are not written are not given here.

System: ATCC reference strains
Experiment: Antibacterial activity against the ATCC reference strains, overall
Format: cell-based
Conditions: against the ATCC reference strains of E. faecalis and P. aeruginosa, all strains together
Experimental: We screened all five peptides against the ATCC reference strains and the clinical isolates according to Method M7-A7 of the National Committee for Clinical Laboratory Standards (CLSI, [2007]). The MIC50 and MBC values were determined using a broth microdilution and growth inhibition method previously reported by Leon-Calvijo et al. ([2015]), with some modifications (Wiegand et al., [2008]). Briefly, the MIC50 experiments comprised a liquid-inhibition growth assay in a sterile, untreated, 96-well flat-bottom tissue culture plate. […] The turbidity of the cultures was measured and adjusted spectrophotometrically to a McFarland standard of 0.5, and then diluted to a final concentration of 5 × 10^7 colony forming units (CFU) per well. […] Each concentration was evaluated in duplicate and each assay was performed in triplicate.
Wells containing Mueller Hilton broth with bacterial inoculum only served as bacterial-growth controls. […] The microplate was incubated for 24 h at 37°C, and growth inhibition was measured by monitoring the optical density at 620 nm (OD620). […]
To determine the MBC, an aliquot from each well of the MIC50 assay was spread onto Mueller Hilton agar. After 18 h at 37°C, the concentration that inhibited bacterial growth was determined. […]

## RRWQWR-NH2 [LfcinB (20–25), reference compound]
  MIC50: > 200 µM
